Results from patent US20230338463A1, “ICD PEPTIDE AND USE THEREOF FOR HAVING CYTOTOXIC ACTIVITY ON CANCER CELLS” (NATIONAL TSING HUA UNIVERSITY, priority 2022, published 2023).
Non-standard residues stand in square brackets, D forms with d. Residues, ends and D or L forms follow the SMILES beside them. 2Nal = N[C@@H](Cc1ccc2ccccc2c1)C(=O)O

Columns and labels:
[1] = system: MN-11 cells (murine fibrosarcoma); assay type: cell-based
Source text: Medium with PBS solution was used as control group.
Besides, MTT assay was used to test the cell viability of the murine fibrosarcoma MN-11 cell line. Among the peptides, Dip-P-113 had the lowest cytotoxicity against MN-11 cells (FIG. 1F).

PC 9 cells [2] = test: Extracellular HMGB1 Western blot, PC 9; assay type: cell-based, human
Protocol: HMGB 1 is a chromatin-binding protein and plays an important role as an indicator in the peptide induced immunogenic cell death. In one embodiment, the PC 9 cells were seeded at the density of 2 × 10^4 cells/well under the culture condition in 6-well plate as mentioned earlier in the cell viability determination and left to adhere for 48 hrs. The cells were treated with 56.22 µM of SEQ ID NO:3, 128.38 µM of SEQ ID NO:4 and 142.9 µM of SEQ ID NO: 5 peptides which is the two-fold IC50 concentration for 1 hour (FIG. 4A), 2 hour (FIG. 4B), 4 hour (FIG. 4C) under the incubation condition of humidified 5% CO2 and 37° C. The ICD peptides used were dissolved thoroughly in the serum-free medium (RPMI 1640) before treating the cells.
After the treatment of ICD peptides, the supernatant and lysate of the cells were collected separately for the further experiment. The supernatant was centrifuged at the speed of 1,500 RCF while the cell lysate was undergoing the centrifugation at 14,000 rpm for 5 minutes under the temperature of 4° C. Then, the pellet collected from the supernatant and supernatant of centrifuged cell lysate were discarded. The harvested pellet of cell lysate was washed twice using 200 µL PBS each time preliminarily the sonication of the pellet using bio-disruptor. The disrupted pellet was centrifuged again for 10 minutes under 14,000 rpm and 4° C.
The concentration of the samples was quantified using the commercially available protein quantification assay such as Bradford assay to make sure the amount of the protein was equally loaded in each of the well for SDS-PAGE gel.
The transfer process from polyacrylamide gel to PVDF membrane was performing for 75 minutes under 30 V and 400 mA as well as semi-dry condition. PBST buffer was used to wash the PVDF membrane three times after the transfer process.
The anti-HMGB1 antibody (Abcam, Cambridge, UK, ab18256) will be the primary antibody and incubated overnight at 4° C. in the dilution ratio of 1: 1000. […]

PC 9 cells [3] = test: Luciferin-luciferase extracellular ATP, PC 9; assay type: cell-based, human; conditions: PC 9, 2 × IC50, peak at 0.5 hour
Protocol: The ATP release from cancer cells were measured using the luciferin-luciferase assay as ATP release had been the iconic feature for immunogenic cell death (ICD).
PC 9 cells were seeded in the 96 well plate at the density of 10,000 cells/ well and allowed to adhere for 48 hours in the condition described previously for MTT assay. […] All of the three ICD peptides were dissolved in the serum-free RPMI 1640 medium for the cells’ treatment. Cells were treated with serum-free RPMI 1640 medium containing PBS as the control group. After being treated for 0.5, 1, 1.5, and 2 hours, the supernatant of cells was collected separately and stored at -20° C. before the ATP assay. The aliquot of reconstituted rL/L reagent in the ENLITEN ATP assay kit (Promega, Madison, WI, USA) was incubated at room temperature for one hour before using. The collected supernatant of the cells was centrifuged at the speed of 500 xg for 10 minutes and took out 100 µL of the supernatant into the black 96 well plate with clear bottom to avoid cross-talk between wells. […] Measurement of the extracellular ATP chemiluminescence was completed using the Wallac VICTOR 3 Multilabel plate reader (PerkinElmer, Shelton, CT, USA)

[4] = system: MN-11 cells (fibrosarcoma); test: MN-11 fibrosarcoma tumor regression, intratumoral injection; assay type: in vivo
Protocol: Female C57BL/6 wild-type mice (4–5 weeks old) were obtained from the BioLASCO Taiwan Co., Ltd (Taiwan). All mice were housed in a specific pathogen-free and controlled environment. During the experiments, female mice, weighing 18–24 g each, were kept in groups of 4 to 6 animals per cage under climate-controlled conditions, with 12 h light/dark cycles and an ambient temperature. The mice were housed in an enriched individually ventilated cage system with free access to standard rodent chow and water ad libitum. The animals were anesthetized during the experimental procedures with 2.5% isoflurane gas. The animals were monitored daily and large-tumor-bearing mice were euthanized with isoflurane. All the procedures were conducted according to the regulations of Laboratory Animal Care and Use Committee or Group Setup and Management and the law of Animal Protection. All animal experiments were approved by National Tsing Hua University (approval ID: 110016), and the protocol was approved by Institutional Animal Care and Use Committee.
Pre-cultured MN-11 cells were harvested in a DMEM medium and inoculated total of 5×10^5 cells (mixed equal volume of matrigel) into the right flank of the abdomen in C57BL/6 mice with subcutaneous injection (6 mice/group). Palpable tumors (50-75 mm^3) were intratumorally injected (i.t.) with Nal-P-113 (1 mg/50 µl saline per mouse) for 3 consecutive days. Negative control (tumor only) mice received saline only (sterile H2O with 0.9% NaCl). Tumor size was measured every 2 days using a caliper, and the volume of tumors was calculated using the following formula: Tumor size (mm^3) = 0.5× (width^2×length). Animals were terminated when the tumor exceeded 2000 mm^3. The survival rates of tumor-bearing mice were observed and recorded continuously until all animals were dead. Additionally, the following were implemented as humane endpoints: signs of unacceptable pain, infection, severe ulceration, or surgical complications.
To investigate the therapeutic potential of Nal-P-113 in vivo, MN-11 cells were subcutaneously implanted into C57BL/6 mice. After eight days post-implantation, tumor volumes reached 50-75 mm^3. Then all animals were injected intratumorally (i.t.) with 50 µl of PBS (Negative control; n=5) or […] Nal-P-113 (n=11). […] At the end of the experiments (35 days), 10 out of 11 animals were survived in the treatment group. […] Nal-P-113 treatment appeared to be nontoxic since no there were effects on the body weight and intake of the animals at the end of the experiment (FIG. 9D and FIG. 9E).

MN-11 cells = test: Tumor re-challenge of cured animals; assay type: in vivo, C57BL/6 mice; conditions: n=5
Protocol: Tumor size was measured every 2 days using a caliper, and the volume of tumors was calculated using the following formula: Tumor size (mm^3) = 0.5×(width^2×length). The survival rates of tumor-bearing mice were observed and recorded

CC(=O)N[C@@H](C)C(=O)N[C@@H](CCCCN)C(=O)N[C@@H](CCCNC(=N)N)C(=O)N[C@@H](Cc1ccc2ccccc2c1)C(=O)N[C@@H](Cc1ccc2ccccc2c1)C(=O)NCC(=O)N[C@@H](Cc1ccc(O)cc1)C(=O)N[C@@H](CCCCN)C(=O)N[C@@H](CCCNC(=N)N)C(=O)N[C@@H](CCCCN)C(=O)N[C@@H](Cc1ccccc1)C(=O)N[C@@H](Cc1ccc2ccccc2c1)C(N)=O [SEQ ID NO:3, Ac-AKR Nal Nal GYKRKFNal-NH2] (Ac-AKR[2Nal][2Nal]GYKRKF[2Nal]-NH2)
IC50 [1]: 11.1 ± 1.37 µM | HMGB1 in supernatant (PC 9 cells [2]; PC 9, 2 × IC50, 1 hour): nothing is observed | HMGB1 in supernatant (PC 9 cells [2]; PC 9, 2 × IC50, 2 hours): can be detected | HMGB1 in supernatant (PC 9 cells [2]; PC 9, 2 × IC50, 4 hours): obviously be seen | ATP release, highest value (relative light unit) (PC 9 cells [3]): around 10,000 RLU | toxicity (body weight and intake) ([4]; C57BL/6 mice, at the end of the experiment): nontoxic | animals survived ([4]; end of the experiments (35 days), i.t. Nal-P-113 for 3 consecutive days, n=11): 10 out of 11 | complete regression of the tumor ([4]; treatment group n=11, i.t.): 5 animals | tumor recurrence ([4]; treatment group n=11, i.t.): 6 animals | protection from MN-11 cells re-challenge (MN-11 cells; animals with complete regression, s.c. re-challenge): All animals were protected | survival after re-challenge (MN-11 cells; until the end of the experiments (55 days)): stayed alive
